Experiment: gradient 5% acetonitrile 3 min, to 50% in 2 min, to 85% in 15 min, held 3 min, 100 µL/min
Conditions: column: Zorbax Extend-C18 2.1 x 50 mm; eluents: water / acetonitrile, 0.1% formic acid
Outline: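 Retention time was recorded from adduct peaks, which were picked computationally and each inspected manually. Pure standards ran in mixtures of ~100 molecules on HPLC coupled to a quadrupole time-of-flight mass spectrometer, in positive and negative ionization mode, through a Zorbax Extend-C18 column (2.1 × 50 mm, 1.8 μm) at 100 μL/min. Eluents were water and acetonitrile, each with 0.1% formic acid.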

CCn1cc(CC(=O)NCc2ccc3c(c2)OCO3)c2cccnc21
RP-LC retention time: 690 s

O=S(=O)(c1ccc2c(c1)CCCC2)N1CCCn2nc(-c3ccncc3)cc2C1
RP-LC retention time: 706 s

Cc1ccc(NC(=O)C2CCN(C(=O)c3ncn4c3COC(c3ccc(F)cc3)C4)CC2)c(Cl)c1 (stereo not drawn)
RP-LC retention time: 842 s

O=C(NCCN1CCOCC1)c1nnc(-c2ccc(S(=O)(=O)N3CCCCC3)cc2)o1
RP-LC retention time: 647 s

Cc1ccccc1OCC(=O)NCCN1CCN(S(C)(=O)=O)CC1
RP-LC retention time: 558 s

Cn1nnnc1SCC(=O)Nc1nc(-c2ccccc2)c(-c2ccccc2)o1
RP-LC retention time: 888 s

Cc1ccc(NC(=O)C2CCN(S(=O)(=O)c3ccc4c(c3)NC(=O)C(C)O4)CC2)cc1F (stereo not drawn)
RP-LC retention time: 910 s

CCOC(=O)c1c(S(=O)(=O)N2CCC(C(=O)NCCC3=CCCCC3)CC2)c(C)n(C)c1C
RP-LC retention time: 896 s

Cn1cc(C2=CCN(S(=O)(=O)c3cccc(Cl)c3)CC2)c2cccnc21
RP-LC retention time: 1060 s

COCC1CCN(C(=O)COc2ccc(NC(=O)C3CC3)cn2)CC1
RP-LC retention time: 650 s

COc1ccc(-c2cn3c(CC(=O)Nc4ccccc4C(F)(F)F)csc3n2)cc1OC
RP-LC retention time: 755 s

CC(=O)N1CCc2cc(S(=O)(=O)C(C)CC(=O)N3CCN(c4ccc(Cl)cc4)CC3)ccc21 (stereo not drawn)
RP-LC retention time: 870 s

CCN(CC)c1nc2ccsc2c(=O)n1CCC(=O)NCc1ccc(F)cc1
RP-LC retention time: 831 s

Cc1nn(-c2cc(N(C)C)ncn2)c(C)c1CCC(=O)N1CCC(Cc2ccccc2)CC1
RP-LC retention time: 969 s

Cc1sc2cc(C(=O)N3CCN(c4ccccc4)CC3)[nH]c2c1CN1CCOCC1
RP-LC retention time: 710 s

CNc1nc(Nc2ccccc2F)nc2ccccc12
RP-LC retention time: 634 s

O=C(Cn1c(=O)c2nncn2c2ncccc21)NCc1ccccc1Cl
RP-LC retention time: 662 s

Cc1nnc2cc(N3CCN(C(=O)Nc4ccccc4Cl)CC3)cnn12
RP-LC retention time: 567 s

COc1ccc(NS(=O)(=O)c2cccc(-c3nc(-c4ccccc4)no3)c2)cc1
RP-LC retention time: 1100 s

CCOc1ccc(S(=O)(=O)N2CCc3c(c(-c4nnc(-c5ccccc5F)o4)nn3C)C2)cc1
RP-LC retention time: 945 s

O=C(CCc1csc(NC(=O)c2cccs2)n1)Nc1ccc(F)c(Cl)c1
RP-LC retention time: 869 s

COc1ccc(-c2noc(C3CCCN3C(=O)c3ccsc3)n2)cc1 (stereo not drawn)
RP-LC retention time: 849 s

O=C(NCCc1ccccc1)NCc1cccn1Cc1ccc(F)cc1
RP-LC retention time: 965 s

O=C(Nc1ccccc1F)N1CC(F)(F)C[C@H]1CN1CCCC1
RP-LC retention time: 620 s

COc1ccc(-n2nc(N3CCCC(C(=O)NCc4cccc(OC)c4)C3)ccc2=O)cc1 (stereo not drawn)
RP-LC retention time: 763 s

COc1ccc(-c2noc(-c3cccnc3N3CCN(c4ccccc4OC)CC3)n2)cc1
RP-LC retention time: 1150 s

Cc1cc2c(=O)n(CC(=O)NCc3ccccc3Cl)c3cccnc3n2n1
RP-LC retention time: 729 s

CCc1ccc(NS(=O)(=O)c2cc(-c3ccn[nH]3)sc2C)cc1
RP-LC retention time: 854 s

Cc1cc(C)n(CCC(=O)NCCn2c(C)cnc2C2CCC2)n1
RP-LC retention time: 577 s

O=C(NC1CCCCCC1)C1CCN(S(=O)(=O)c2cc(-c3noc(C4CCC4)n3)cs2)CC1
RP-LC retention time: 1110 s

COc1cccc(N2C(=O)CC(N3CCC(C(N)=O)CC3)C2=O)c1 (stereo not drawn)
RP-LC retention time: 585 s

O=C(CCCCCN1C(=O)c2cccc3cccc(c23)C1=O)NO
RP-LC retention time: 694 s

C=CCN1C(=O)COc2ccc(-c3csc(NC(=O)c4ccc(F)cc4)n3)cc21
RP-LC retention time: 1010 s

CN(C)C(CNC(=O)C(=O)NCCC1=CCCCC1)c1ccsc1 (stereo not drawn)
RP-LC retention time: 590 s

CCNC(=O)C1CCN(c2nc3ncn(CC(=O)Nc4ccc(C)cc4C)c(=O)c3s2)CC1
RP-LC retention time: 675 s

CCCOc1ccc(-c2noc(Cc3nc(-c4cccc(OC)c4)cs3)n2)cc1
RP-LC retention time: 1360 s

Cc1ccccc1CNC(=O)C1CCN(S(=O)(=O)c2c(C)[nH]c(C)c2C(=O)N2CCCC2)CC1
RP-LC retention time: 727 s

Cc1nn(C)c(C)c1CCCN(C)C(=O)CCc1ccnc(N2CCOCC2)c1
RP-LC retention time: 521 s

O=C(Nc1ccc(F)c(F)c1)c1cccn1Cc1noc(-c2ccccc2)n1
RP-LC retention time: 1100 s

c1ccc(-c2ccc(-c3nccc4ccccc34)[nH]2)cc1
RP-LC retention time: 806 s

Cc1scc2nc(C3CCC3)nc(N3CCC(C(=O)N4CCN(c5ccccn5)CC4)CC3)c12
RP-LC retention time: 587 s

Cc1ccccc1NC(=O)CN1CCc2[nH]c3c(C)cc(F)cc3c(=O)c2C1
RP-LC retention time: 608 s

O=S(=O)(NCc1ccc(F)cc1)c1ccccc1-c1nc(-c2ccc(F)cc2)no1
RP-LC retention time: 1180 s

Cc1ccsc1-c1nc(-c2ccc3ncn(C)c3c2)no1
RP-LC retention time: 732 s

COc1ccc(N2C=C(C#N)S(=O)(=O)c3ccc(F)cc32)cc1OC
RP-LC retention time: 893 s

CCN1c2ccc(Cl)cc2C(=O)NC12CCN(C(=O)Nc1cccc(OC)c1)CC2
RP-LC retention time: 852 s

CCc1nncn1C1CCN(C(=O)c2cc(-c3cccs3)[nH]n2)C1 (stereo not drawn)
RP-LC retention time: 595 s

CCN1CCN(C(=O)C(C)C2CCN(S(=O)(=O)c3ccc(Cl)s3)CC2)CC1 (stereo not drawn)
RP-LC retention time: 666 s

CSc1cccc(NC(=O)N2CCC3(CC2)NC(=O)c2ccccc2O3)c1
RP-LC retention time: 793 s

Cc1nnc(C(C)C)n1C1C[C@H]2CC[C@@H](C1)N2CC[C@H](NC(=O)C1CCC(F)(F)CC1)c1ccccc1 (stereo partly drawn)
RP-LC retention time: 666 s

O=C(Nc1ccc(CCc2nc3ccccc3n2-c2ccccc2)cc1)c1cnccn1
RP-LC retention time: 694 s

O=C(CSc1ccc(N2CCCC2)nn1)Nc1ccc(Cl)cc1
RP-LC retention time: 647 s

CCNc1ncnc2sc3c(c12)CCN(Cc1ccncc1)C3
RP-LC retention time: 659 s

Cc1ccc(Nc2c(C(=O)N3CCOCC3)cnc3nc(C)ccc23)cc1
RP-LC retention time: 598 s

CCOc1ccc(S(=O)(=O)N(CC(=O)N2CCNCC2)C(C)C)cc1
RP-LC retention time: 625 s

COc1cccc(NC(=O)C2CCN(S(=O)(=O)c3ccc4c(c3)sc(=O)n4C)CC2)c1
RP-LC retention time: 845 s

O=C(CCc1nc(-c2ccc(N3CCCC3)cc2)no1)N1CCN(c2ncccn2)CC1
RP-LC retention time: 957 s

Cc1c(F)cccc1NC(=O)c1cc2n(n1)CCCC2
RP-LC retention time: 931 s

CCOc1ccc(CC(=O)OCn2nnc3ccccc3c2=O)cc1
RP-LC retention time: 914 s

O=c1c2sccc2n(Cc2nc(-c3ccc(Cl)c(F)c3)no2)c(=O)n1CCc1ccccc1
RP-LC retention time: 1280 s

COc1ccc(-c2csc3ncn(-n4c(C)ccc4C)c(=O)c23)cc1OC
RP-LC retention time: 905 s

O=C(NC1CCCCCC1)c1nc(Nc2ccc(F)cc2)c2ccccc2n1
RP-LC retention time: 943 s

CCOC(=O)c1nc(NCc2ccc(CC)cc2)c2ccccc2n1
RP-LC retention time: 869 s

CCOC(=O)c1nc2ccccc2nc1N1CCN(c2ccccn2)CC1
RP-LC retention time: 666 s

CCOCN(C(=O)Cn1c(C(C)O)nc2ccccc21)c1c(C)cccc1CC (stereo not drawn)
RP-LC retention time: 748 s

CC(NC(=O)CCc1c(-c2ccc(Cl)cc2)nc2ccccn12)c1ccccc1 (stereo not drawn)
RP-LC retention time: 700 s

Cc1cccc(C)c1Nc1c(-c2cc(Br)ccc2O)nc2ncccn12
RP-LC retention time: 1090 s

Cc1c(NC(=O)C(C)C)c(=O)n(-c2ccccc2)n1C
RP-LC retention time: 745 s

Cc1ccc(S(=O)(=O)N2CCC(c3nc(-c4ccccn4)no3)CC2)cc1
RP-LC retention time: 916 s

COc1ccc(OCc2nc(CCN(C)C(=O)c3ccco3)no2)cc1
RP-LC retention time: 782 s

COc1ccc2c(c1)CCCN2C(N)=Nc1ccc(Cl)cc1
RP-LC retention time: 753 s

Cc1sc2ncnc(N3CCCC(C)C3)c2c1C(=O)Nc1cc(F)ccc1Cl (stereo not drawn)
RP-LC retention time: 1450 s

CC(=O)c1cccc(N2C(=O)COc3ccc(Br)cc3C2C(=O)NC2CCCC2)c1 (stereo not drawn)
RP-LC retention time: 913 s

Cc1ccc(S(=O)(=O)N(c2ccc(Br)cc2)C2C=CS(=O)(=O)C2)cc1 (stereo not drawn)
RP-LC retention time: 887 s

CCc1ccccc1NC(=O)CSc1nccc(N2CCN(c3cc(C)ccc3C)CC2)n1
RP-LC retention time: 1060 s

COc1ccccc1Oc1c(NS(=O)(=O)c2ccc(C)cn2)nc(-c2ccncc2)nc1OC
RP-LC retention time: 870 s

COc1ccc(CNC(=O)Nc2cc3c(cc2N2CCCC2)n(C)c(=O)n3C)cc1
RP-LC retention time: 750 s

COc1ccc(-c2nc(-c3ccc4oc(C)nc4c3)no2)c(OC)c1
RP-LC retention time: 976 s

C[C@H]1CN(C(=O)c2ccc(C#N)cc2)C[C@@H]1c1nc(-c2cccnc2)no1
RP-LC retention time: 717 s

Cn1c(-c2ccccc2)nn(CCNS(=O)(=O)c2ccc(Cl)s2)c1=O
RP-LC retention time: 748 s

COc1ccc(C2Nn3c(C)nnc3SC2C(=O)N2CCCCCC2)cc1Br (stereo not drawn)
RP-LC retention time: 794 s

CC1CN=C2C=C(N3CCN(C(=O)NCc4cccc(F)c4)CC3)N=CN21 (stereo not drawn)
RP-LC retention time: 605 s

CC1CCN(S(=O)(=O)c2ccc(-c3nnc(C4CCC4)o3)o2)CC1
RP-LC retention time: 1030 s

O=C(c1ccc2nsnc2c1)N(Cc1ccsc1)Cc1ccco1
RP-LC retention time: 898 s

O=C([C@@H]1C[C@H](F)CN1S(=O)(=O)c1ccc(Cl)s1)N1CCc2ccccc2C1
RP-LC retention time: 955 s

CSc1ccc(CNC(=O)C2CCCN(c3ncnc4c3oc3ccccc34)C2)cc1 (stereo not drawn)
RP-LC retention time: 786 s

CCN1CCCC1CNC(=O)C1CCN(S(=O)(=O)c2ccc3c(c2)sc(=O)n3C)CC1 (stereo not drawn)
RP-LC retention time: 794 s

CCc1nc(C)c(C)c2nn(Cc3cccc(C#N)c3)c(=O)n12
RP-LC retention time: 919 s

Reference: the METLIN SMRT retention time set (Domingo-Almenara et al. 2019)
